In US9266829B2, “Quinone compounds and their uses for the treatment of cancer” (Onco-NX Limited, priority 2012, dated 2016):
Values after ≈ are worked out from the molar mass of the structure shown. Read-outs that look alike come from different tables or passages of the source.

What was measured:
MDA NQ01 cell extract = experiment: Cell lysate esterase reaction, MDA NQ01 cell extract; assay type: in vitro ADME, human
Source text: (§1) The cleavage of Es5 by esterase and cell extracts and its activation were investigated.
(§2) The degradation of Es5 by esterases from cell lysate of the two cell lines MDA NQ01 and MDA468 was investigated.

esterases = experiment: as above; assay type: in vitro ADME, human; details: human, MDA NQ01 cell line extract (cell lysate)
Source text: as §1, §2

H460 NSCLC = experiment: In vivo hollow fibre assay, H460; details: i.p. dosing days 3-6, nude mice
Description: (§3) The activity of Es5 (4.65) was evaluated in vivo against 3 cancer cell lines H460, MDA-MB-468-NQ01 and MDA-MB-468-MOCK using the in vivo hollow fibre assay (HFA), with fibres implanted at both intraperitoneal (i.p.) and subcutaneous (s.c.) sites. Es5 and the control agent Doxorubicin were administered as multiple doses by intraperitoneal injection (i.p.) on days 3, 4, 5 & 6 at 0.5 mg/kg/day and 2.5 mg/kg/day respectively.
(§4) Three human tumour cell lines were selected for analysis: H460 NSCLC (from ICT) and two breast carcinoma lines MDA-MB-468-NQ01 and MDA-MB-468-MOCK (both supplied by Onco-NX). Cells were cultured in RPMI 1640 cell culture medium supplemented with 1 mM sodium pyruvate, 2 mM L-glutamine and 10% foetal bovine serum (all from Sigma), and maintained as monolayer cultures at 37° C. in a humidified 5% CO2 environment.
(§5) Female Balb/C immunodeficient nude mice aged 6-8 weeks were used (Harlan UK, Blackthorn, UK). Mice were kept in cages housed in isolation cabinets in an air-conditioned room with regular alternating cycles of light and darkness. They received Teklad 2018 diet (Harlan, Blackthorn, UK) and water ad libitum. All animal procedures were carried out under a project licence issued by the UK Home Office and UKCCCR guidelines were followed throughout.
Cells were loaded into sterilised colour-coded PVDF Spectra/Por hollow fibres (HF) (Spectrum Medical Inc, Houston, Tex., USA). Briefly cells were harvested and resuspended in cell culture medium at the required cell density. This preparation was then loaded into the HF and the ends were clamped and heat-sealed. […]
(§6) Mice were sacrificed on day 7 post-implantation, fibres removed, and cell survival analysed using a modified MTT assay, comparing absorbances seen for the treated groups with the corresponding untreated control group. […]

NQ01 cells = experiment: Combination index at IC50 with other anti-cancer agents in NQ01 cells; assay type: cell-based, human
MDA468 = experiment: IC50 by MTT assay on MDA468 cells; assay type: cell-based, human
MDA468NQ01 = experiment: DNA damage, Comet assay, MDA468NQ01 cells; assay type: cell-based, human; details: 10 nM for 2 hrs, compared to H2O2 alone
Description: (§7) DNA damage was measured using the Comet assay to investigate the effect of Es5 on the comet head and tail intensities following treatment of MDA468NQ01 and the DT-diaphorase null MDA468 cell lines. […] Without wishing to be bound by any particular theory, the inventors believe that this must arise by a different mechanism such as 2×one electron reductions, rather than the 2 electron reduction that occurs with DT-diaphorase.

physchem [1] = experiment: physchem
physchem [2] = assay type: physicochemical; details: buffer, pH 7
serum esterase = experiment: Degradation by serum esterase (hydrolysis in serum); assay type: in vitro ADME
Source text: as §1

MDA-MB-468-MOCK = experiment: In vivo hollow fibre assay, MDA-MB-468-MOCK; details: fibres at i.p. site; i.p. dosing days 3-6; nude mice; p<0.01
Description: as §3, §4
Female Balb/C immunodeficient nude mice aged 6-8 weeks were used (Harlan UK, Blackthorn, UK). Mice were kept in cages housed in isolation cabinets in an air-conditioned room with regular alternating cycles of light and darkness. They received Teklad 2018 diet (Harlan, Blackthorn, UK) and water ad libitum. […]
as §6

[3] = tested on: DT-diaphorase null MDA468; experiment: DNA damage, Comet assay, DT-diaphorase null MDA468 cells; assay type: cell-based, human
Description: as §7

[4] = tested on: DT-diaphorase null MDA 468 cells; experiment: Apoptosis by Annexin V binding, DT-diaphorase null MDA 468 cells; assay type: cell-based, human
Description: (§8) Based on the method described in Martin et al. (Journal of Experimental Medicine. 182, 1545-1556. 1995), the induction of apoptosis caused by the compounds of the present invention was determined.

physchem [5] = experiment: physchem; remark: listed apart in the source
MDA NQ01 = experiment: IC50 by MTT assay on NQ01 cells; assay type: cell-based, human
MDA-MB-468-NQ01 = experiment: In vivo hollow fibre assay, MDA-MB-468-NQ01; parameters: species or system mice
Description: as §3, §4, §5
Cells were loaded into sterilised colour-coded PVDF Spectra/Por hollow fibres (HF) (Spectrum Medical Inc, Houston, Tex., USA). Briefly cells were harvested and resuspended in cell culture medium at the required cell density. This preparation was then loaded into the HF and the ends were clamped and heat-sealed. The HF was then cut into 1.5 cm lengths which were again heat-sealed at both ends, and then transferred to 6-well plates containing medium before implantation for the in vivo experiments, or were incubated at 37° C. in a humidified 5% CO2 environment for varying times before processing using the modified MTT assay as described below.
For the in vivo experiments, under brief inhalation anaesthesia (2% isoflurane), one loaded hollow fibre for each of the cell lines was transplanted intraperitoneally or subcutaneously on the dorsal flank of each mouse and the mice were allowed to recover. Each group consisted of 6 mice and the implantation day was termed ‘day 0’.
For assessment of the therapeutic response of Es5 (4.65), on days 3, 4, 5 & 6 mice were treated with Es5 (4.65) at 0.5 mg/kg/day or Doxorubicin at 2.5 mg/kg/day.
Mice were sacrificed on day 7 post-implantation, fibres removed, and cell survival analysed using a modified MTT assay, comparing absorbances seen for the treated groups with the corresponding untreated control group. Statistical analysis was carried out using a Student's t-test.

porcine brain extracts = experiment: Cleavage by porcine brain extracts; assay type: in vitro ADME; details: in words; result of porcine esterase repeated
Source text: as §1

[6] = tested on: DT-diaphorase expressing cells; experiment: Apoptosis by Annexin V binding, DT-diaphorase expressing cells; assay type: cell-based, human
Description: as §8

MDA468 cells = experiment: Combination index at IC50 with other anti-cancer agents in MDA468 cells; assay type: cell-based, human

Structure (SMILES): CC(=O)OCCCC1=C(N2CC2)C(=O)C(C)=C(N2CC2)C1=O [Es5, Acetic Acid 3-(2,5-bis-aziridin-1-yl-4-methyl-3,6-dioxo-cyclohexa-1,4-dienyl)-propyl ester]
- Degradation by MDA NQ01 cell extract, rate (MDA NQ01 cell extract; human, MDA NQ01 cell line extract (cell lysate)): (11.25 nmoles/hr/10^6 nmoles/hr/10^6 cells
- cleavage of the ester by MDA468 NQ01 cell extract (MDA NQ01 cell extract; in words): rapidly cleaved
- half-life (esterases; Degradation by MDA NQ01 cell extract, t1/2): 2.67 h
- half-life (esterases; room temperature, degraded to the alcohol 4.61, read-out: half-life in MDA NQ01 cell line extract): ~2.67 h
- cell survival compared to the untreated control, H460, i.p. site (H460 NSCLC; fibres at i.p. site, p<0.01): significant efficacy
- cell survival compared to the untreated control, H460, s.c. site (H460 NSCLC; fibres at s.c. site): significant efficacy
- Combination index at IC50 with ARA-C in NQ01 cells (NQ01 cells; with ARA-C): 1.22 (slight
- Combination index at IC50 with Cis-platinum in MDA NQ01 (NQ01 cells): synergy
- Combination index at IC50 with Cis-platinum in MDA NQ01 (NQ01 cells; listed as Es5 (4.65)): 0.674 (synergy)
- Combination index at IC50 with Docetaxel in NQ01 cells (NQ01 cells): additive effect
- Combination index at IC50 with Docetaxel in NQ01 cells (NQ01 cells; listed as Es5 (4.65)): 0.964 (additive)
- Combination index at IC50 with Epirubicin in NQ01 cells (NQ01 cells; with Epirubicin): 2.04 (antagonism)
- Combination Index at IC50 with Mitomycin C in NQ01 cells (NQ01 cells): additive effect
- Combination Index at IC50 with Mitomycin C in NQ01 cells (NQ01 cells; listed as Es5 (4.65)): 0.924 (additive)
- Combination index at IC50 with cobalt chloride in NQ01 cells (NQ01 cells): strong synergy
- Combination index at IC50 with cobalt chloride in NQ01 cells (NQ01 cells; listed as Es5 (4.65)): 0.54
- IC50 (MDA468; Homo sapiens): 25 nM
- IC50 (MDA468; listed as Es5 (4.65)): 20 to 25 nM
- Comet assay head and tail intensities (DNA cross-linking) (MDA468NQ01): increased the proportion of DNA in the head
- half-life (physchem [1]): < 24 h
- half-life at 50 μM (physchem [2]): > 24 h
- Degradation by serum esterase, t90 (serum esterase; T90 = time taken to degrade to 90% of starting concentration): t90 90 mins
- half-life (serum esterase; serum, read-out: hydrolysis in serum, t1/2): 1.67 h
- cell survival compared to the untreated control, MDA-MB-468-MOCK, i.p. site (MDA-MB-468-MOCK): significant efficacy
- Comet assay tail intensity (DNA cross-linking) ([3]; DT-diaphorase deficient cell line, compared to H2O2 alone): did not reduce tail intensity
- Comet assay, DNA cross-linking after 6 hours of incubation ([3]; DT-diaphorase null cell line, 6 hours): evidence of cross-linking
- apoptosis (Annexin V binding) at 2 hours ([4]; 2 hours): no death is seen
- apoptosis (Annexin V binding) after 4 hrs ([4]; after 4 hrs): reduced level of apoptosis
- solubility (physchem [5]; aqueous buffer): 150 µg/mL (≈ 0.493 mM)
- solubility (physchem [5]; organic solvent or mixture): 9400 µg/mL (≈ 30.9 mM)
- IC50 (MDA NQ01; Homo sapiens, MTT assay): 0.23 nM
- selectivity towards cells that express DT-diaphorase (MDA NQ01; IC50 values, MTT assay): excellent selectivity
- MDA468 to NQ01 differential (MDA NQ01; ratio of IC50 values): > 80 fold
- cell survival compared to the untreated control, MDA-MB-468-NQ01, i.p. site (MDA-MB-468-NQ01; fibres at i.p. site, i.p. dosing days 3-6, nude mice, p<0.01): significant efficacy
- efficacy in the NQ01-expressing compared to the Mock MDA-MB-468 cell line (MDA-MB-468-NQ01; hollow fibre assay): improved efficacy
- cleavage by porcine brain extracts (porcine brain extracts): rapidly cleaved
- time to induction of programmed cell death (Annexin V binding) [6]: ≤ 2 h
- Combination index at IC50 with ARC-C in MDA468 cells (MDA468 cells; with ARC-C): 1.2 (slight
- Combination index at IC50 with Cis-platinum in MDA468 (MDA468 cells): synergy
- Combination index at IC50 with Cis-platinum in MDA468 (MDA468 cells; listed as Es5 (4.65)): 0.567 (synergy)
- Combination index at IC50 with Docetaxel in MDA468 cells (MDA468 cells): moderately inhibitory effect
- Combination index at IC50 with Docetaxel in MDA468 cells (MDA468 cells; listed as Es5 (4.65)): 1.387 (moderately
- Combination index at IC50 with Epirubicin in MDA468 cells (MDA468 cells; with Epirubicin): 1.49 (antagonism)
- Combination Index at IC50 with Mitomycin C in MDA468 cells (MDA468 cells): slight antagonism
- Combination Index at IC50 with Mitomycin C in MDA468 cells (MDA468 cells; listed as Es5 (4.65)): 1.4 (slight
- Combination index at IC50 with cobalt chloride in MDA468 cells (MDA468 cells): strong synergy
- Combination index at IC50 with cobalt chloride in MDA468 cells (MDA468 cells; listed as Es5 (4.65)): 0.464 (strong
